According to patent US20250312433A1, “Process for Producing of Vaccine Formulations With Preservatives” (priority 2022, published 2025):

Legend:
[1] = Dissolution time of 2-PE in Succinate Buffered Saline (visual observation); assay type: physicochemical; conditions: 300 rpm, about 20° C.; for 2-PE bulk dissolution Time: all dissolved besides up to approximately 5 small particles
Description: (§1) The objective of this study was to evaluate the dissolution time and solubility of 2-phenoxyethanol (2-PE). 2-PE dissolution and concentration were evaluated at the following concentrations in Succinate Buffered Saline (SBS) (5 mM succinate, 150 mM NaCl, pH 5.8); 11 g/L, 16.5 g/L, and 20 g/L.
(§2) Appropriate amount of 2-PE was weighed out in 400 ml beaker and appropriate amount of succinate buffered saline was added. Agitation speed was 300 rpm and solution temperature about 20° C. The time for complete dissolution based on visual observation was recorded. 2-PE concentration was measured by RP-HPLC.

[2] = 2-PE concentration / solubility in Succinate Buffered Saline by RP-HPLC; assay type: physicochemical; conditions: for Measured 2-PE concentration: RP-HPLC
Description: as §1, §2

With `OCCOc1ccccc1` [2-PE, 2-phenoxyethanol] the “2-PE bulk dissolution Time” value ([1]; 11 mg/mL 2-PE in SBS (5 mM succinate, 150 mM NaCl, pH 5.8)) was 7 min, the “2-PE bulk dissolution Time” value ([1]; 16.5 mg/mL 2-PE in SBS) was 9 min and the “2-PE bulk dissolution Time” value ([1]; 20 mg/mL 2-PE in SBS) was 15 min. The “2-PE complete dissolution time” value ([1]; 20 mg/mL 2-PE in SBS, all small particles dissolved) was 35 min, the “measured 2-PE concentration below the target concentration” value ([2]; all concentrations (11, 16.5, 20 mg/mL) in SBS) was “approximately 5%” and the solubility ([2]; aqueous buffer, thermodynamic from solid, succinate-buffered saline (pH 5.8) at 20° C.) was ≥ 19.1 mg/mL. For the same molecule, the “Percent Difference (measured − target)/target × 100” value (“Percent Difference” below) ([2]; target 11.0 mg/mL in SBS) was −4.5%, the “Measured 2-PE concentration” value ([2]; target 11.0 mg/mL in SBS) was 10.5 mg/mL and the “Percent Difference” value ([2]; target 16.5 mg/mL in SBS) was −5.5%. The “Measured 2-PE concentration” value ([2]; target 16.5 mg/mL in SBS) was 15.6 mg/mL, the “Percent Difference” value ([2]; target 20.0 mg/mL in SBS) was −4.5% and the “Measured 2-PE concentration” value ([2]; target 20.0 mg/mL in SBS) was 19.1 mg/mL.
